This passage reports inhibition and IC50 results from patent US20070299072A1, “KV1.5 POTASSIUM CHANNEL INHIBITORS” (Wyeth, priority 2006, published 2007).

As a reminder, the IC50 is the concentration at which inhibition is half-maximal.

What all share (format): cell-based
One series deals with T1, Kv1.5 (Homo sapiens, UniProt P22460).
T1 construct: expressed in transfected cells; host or cells: HEK or LTK- cells
Description: Kv1.5 Patch Clamp EP (whole cell patch clamp; single point at 1 μM and IC50). As to conditions: for inhibition at 1 µM: single point at 1.0 μM, Kv1.5 stably over expressed in HEK or LTK- cells; for IC50: concentration response. As to the method:
The external solution is standard Tyrodes solution. […] Inhibition was measured at the end of the 1 second pulses and expressed relative to controls. Initial Kv1.5 inhibition is estimated by single point determinations done at 1 μM.
On the technique in general: In patch-clamp work, channel activity is measured electrically.

The next series has as its target T2, HERG (Homo sapiens, UniProt Q12809).
T2 construct: expressed in transfected cells; host or cells: HEK cells
Description: HERG Patch Clamp EP (whole cell patch clamp, tail currents; single point at 10 μM and IC50). The settings on record: for inhibition at 10 µM: human, HEK cells stably overexpressing HERG, single point at 10 μM, HERG in HEK cells, read-out: HERG % Inhib. @ 10 μM; for IC50: concentration response. An excerpt: The external solution is standard Tyrodes solution.

The test system of a further series is L-type calcium channels. Description: FLIPR L-type Calcium Channel Assay (calcium influx in HL-1 cells after KCl). The settings on record: read-out: L-type Ca2+ IC50. As for the experimental part:
HL-1 cells expressing endogenous L-type calcium channels are removed from culture flasks using trypsin, plated on fibronectin/gelatin-coated, clear-bottomed, black-walled 96-well microplates in Claycomb media (JRH Biosciences #51800) containing 10% fetal bovine serum, 4 mM L-glutamine, and 10 μM norepinephrine, and grown to confluency overnight. The next day, growth medium is aspirated from confluent cell monolayers and replaced with 100 μL per well Tyrode's solution (in mM: 130 NaCl, 4 KCl, 1.8 CaCl2, 1.0 MgCl2, 20 HEPES, 10 glucose, pH 7.35) and 50 μL per well FLIPR Calcium Assay kit, component A (#R-8033, Molecular Devices Corporation) and incubated for 60 min. in a 5% CO2 37° C. incubator. 50 μL per well test compounds are added to the plates and further incubated for 15 min. in a 5% CO2 37° C. incubator. All final solutions contain the anion exchange inhibitor, probenecid (2.5 mM). The 96-well plates are then placed in the center position of the FLIPR 1 (Fluorometric Imaging Plate Reader, Molecular Devices Corporation). Cell monolayers in each well are simultaneously illuminated at 488 nm with an Argon ion laser, and fluorescence emission is monitored using a 510-570 nm bandpass filter and a cooled CCD camera. To depolarize the plasma membrane and activate L-type calcium channels, 50 μL per well of 20 mM KCl (final concentration) are dispensed simultaneously to all 96 wells using the FLIPR's automatic 96-well pipettor. Fluorescence measurements are captured for 5 min. following KCl addition. Calcium influx, expressed as % control, is calculated for each concentration of test compound and concentration-response curves and IC50 values are generated using GraphPad Prism 4.0.

SMILES strings stand for the structures.

T1 sequence (P22460 whole entry): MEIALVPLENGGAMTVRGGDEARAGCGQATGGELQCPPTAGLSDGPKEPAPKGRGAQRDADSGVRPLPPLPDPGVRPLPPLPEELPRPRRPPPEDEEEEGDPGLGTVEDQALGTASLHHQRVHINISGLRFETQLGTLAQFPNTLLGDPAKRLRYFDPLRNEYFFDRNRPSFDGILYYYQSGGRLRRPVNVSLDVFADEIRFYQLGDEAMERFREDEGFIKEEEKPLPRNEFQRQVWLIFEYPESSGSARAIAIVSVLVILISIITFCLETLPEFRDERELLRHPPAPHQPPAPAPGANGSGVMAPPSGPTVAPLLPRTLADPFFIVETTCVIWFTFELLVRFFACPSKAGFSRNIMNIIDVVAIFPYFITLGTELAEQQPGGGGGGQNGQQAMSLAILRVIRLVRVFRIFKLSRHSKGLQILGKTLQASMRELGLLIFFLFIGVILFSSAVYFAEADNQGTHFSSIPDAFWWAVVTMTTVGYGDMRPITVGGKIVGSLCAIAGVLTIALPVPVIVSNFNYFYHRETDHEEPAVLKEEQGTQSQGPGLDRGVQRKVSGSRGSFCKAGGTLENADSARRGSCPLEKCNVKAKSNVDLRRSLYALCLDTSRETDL
T2 sequence (Q12809 whole entry): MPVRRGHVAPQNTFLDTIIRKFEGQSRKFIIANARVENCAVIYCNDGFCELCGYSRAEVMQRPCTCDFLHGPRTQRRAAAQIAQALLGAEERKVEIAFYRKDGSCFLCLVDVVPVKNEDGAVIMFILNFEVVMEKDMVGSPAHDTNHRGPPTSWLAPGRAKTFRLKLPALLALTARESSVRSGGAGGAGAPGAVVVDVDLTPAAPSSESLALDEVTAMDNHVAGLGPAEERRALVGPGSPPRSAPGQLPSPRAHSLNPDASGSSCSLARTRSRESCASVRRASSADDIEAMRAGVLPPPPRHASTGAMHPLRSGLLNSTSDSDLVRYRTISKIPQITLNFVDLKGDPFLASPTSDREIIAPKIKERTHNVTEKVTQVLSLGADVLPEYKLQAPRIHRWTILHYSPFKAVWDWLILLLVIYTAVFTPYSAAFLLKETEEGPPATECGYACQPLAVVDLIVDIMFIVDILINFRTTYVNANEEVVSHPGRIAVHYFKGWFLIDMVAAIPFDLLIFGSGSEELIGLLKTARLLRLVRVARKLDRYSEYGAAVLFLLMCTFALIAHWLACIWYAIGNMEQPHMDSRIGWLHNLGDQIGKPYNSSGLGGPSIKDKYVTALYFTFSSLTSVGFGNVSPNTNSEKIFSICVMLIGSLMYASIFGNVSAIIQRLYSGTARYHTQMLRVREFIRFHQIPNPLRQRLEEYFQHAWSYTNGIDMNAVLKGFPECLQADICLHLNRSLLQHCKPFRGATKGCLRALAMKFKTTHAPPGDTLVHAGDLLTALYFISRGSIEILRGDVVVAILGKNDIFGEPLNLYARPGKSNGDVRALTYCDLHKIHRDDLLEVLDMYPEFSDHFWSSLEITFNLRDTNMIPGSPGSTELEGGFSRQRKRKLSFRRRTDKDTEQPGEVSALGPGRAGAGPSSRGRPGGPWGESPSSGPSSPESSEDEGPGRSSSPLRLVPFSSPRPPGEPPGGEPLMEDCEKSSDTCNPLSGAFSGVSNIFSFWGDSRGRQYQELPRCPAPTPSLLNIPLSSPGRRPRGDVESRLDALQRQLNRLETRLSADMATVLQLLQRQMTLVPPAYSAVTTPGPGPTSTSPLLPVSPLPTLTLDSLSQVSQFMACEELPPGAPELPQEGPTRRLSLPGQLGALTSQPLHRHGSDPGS

Regarding `COc1ccc(CCN2C(=O)C3(CCN(S(C)(=O)=O)CC3)N(C)C2c2ccc(C3CC3)cc2)cc1` (centres unmarked) [Compound 32, 2-(4-cyclopropylphenyl)-8-methanesulfonyl-3-[2-(4-methoxy-phenyl)ethyl]-1-methyl-1,3,8-triaza-spiro[4.5]decan-4-one], at Kv1.5, the inhibition at 1 µM was found to be 90%. The inhibition at 10 µM at HERG worked out at 57%. In the series on L-type calcium channels, the IC50 came to 13 µM.

On to `COc1ccc(CCN2C(=O)C3(CCN(C(=O)C4CC4)CC3)N(C)C2c2ccc(C3CC3)cc2)cc1` (centres unmarked) [Compound 4, 8-Cyclopropylcarbonyl-2-(4-cyclopropylphenyl)-3-[2-(4-methoxyphenyl)ethyl]-1-methyl-1,3,8-triaza-spiro[4.5]decan-4-one], for which, on Kv1.5, the half-inhibitory concentration (IC50) turned out to be 0.151 µM and the inhibition at 1 µM was 94%. At HERG, half-maximal inhibition (IC50) required 9.5 µM and the inhibition at 10 µM is 64%. Besides, in the series with L-type calcium channels, the IC50 stood at 8 µM.

As for `CN1C(c2ccc(C3CC3)cc2)N(CCCc2ccccc2)C(=O)C12CCN(C(N)=O)CC2` (centres unmarked) [Compound 49, 2-(4-Cyclopropylphenyl)-1-methyl-4-oxo-3-(3-phenylpropyl)-1,3,8-triazaspiro-[4.5]decane-8-carboxylic acid amide], on Kv1.5, the IC50 came out at 0.321 µM and the inhibition at 1 µM amounted to 86%. Moreover, at HERG, the IC50 was 7.7 µM and the inhibition at 10 µM was 67%. The IC50 in the series on L-type calcium channels came out at 14 µM.

`CNC(=O)N1CCC2(CC1)C(=O)N(CCc1ccc(OC)cc1)C(c1ccc(C3CC3)cc1)N2C` (centres unmarked) [Compound 8, 2-(4-Cyclopropylphenyl)-3-[2-(4-methoxyphenyl)ethyl]-1-methyl-4-oxo-1,3,8-triaza-spiro[4.5]decane-8-carboxylic acid methyl amide]: on Kv1.5, it took 0.35 µM to reach half-maximal inhibition (IC50) and the inhibition at 1 µM amounted to 91%. For the same compound, the inhibition at 10 µM on HERG is 25%. Besides, the concentration for half-maximal inhibition (IC50) in the series on L-type calcium channels is 11 µM.

In the case of `CONC(=O)N1CCC2(CC1)C(=O)N(CCc1ccc(OC)cc1)C(c1ccc(C3CC3)cc1)N2C` (centres unmarked) [Compound 25, 2-(4-cyclopropylphenyl)-N-methoxy-3-[2-(4-methoxyphenyl)ethyl]-1-methyl-4-oxo-1,3,8-triazaspiro[4.5]decane-8-carboxamide], the inhibition at 1 µM on Kv1.5 is 82%. In addition, the inhibition at 10 µM on HERG was found to be 23%. Besides, the 50% inhibitory concentration (IC50) in the series on L-type calcium channels stood at 17 µM.

`COc1ccc(CCN2C(=O)C3(CCN(CC(N)=O)CC3)N(C)C2c2ccc(C3CC3)cc2)cc1` (centres unmarked) [Compound 55, 2-{2-(4-Cyclopropylphenyl)-3-[2-(4-methoxyphenyl)ethyl]-1-methyl-4-oxo-1,3,8-triaza-spiro[4.5]dec-8-yl}acetamide] gave an inhibition at 1 µM on Kv1.5 of 64%. Also, on HERG, the inhibition at 10 µM was determined as 71%. The IC50 in the series with L-type calcium channels worked out at 8 µM.

Turning to `COc1ccc(CCN2C(=O)C3(CCN(C(=O)C4CCCC4)CC3)N(C)C2c2ccc(OC(F)F)cc2)cc1` (centres unmarked) [Compound 82, 8-(cyclopentylcarbonyl)-2-[4-(difluoromethoxy)phenyl]-3-[2-(4-methoxyphenyl)ethyl]-1-methyl-1,3,8-triazaspiro[4.5]decan-4-one], the inhibition at 1 µM against Kv1.5 was 88%. Besides, at HERG, the inhibition at 10 µM amounted to 90%. Besides, in the series on L-type calcium channels, the IC50 amounted to 7 µM.

On to `COc1ccc(CCN2C(=O)C3(CCN(C(=O)N4CCC4)CC3)N(C)C2c2ccc(C3CC3)cc2)cc1` (centres unmarked) [Compound 21, 2-(4-cyclopropylphenyl)-3-[2-(4-methoxyphenyl)ethyl]-1-methyl-8-(azetidin-1-ylcarbonyl)-1,3,8-triaza-spiro[4.5]decan-4-one], for which the inhibition at 1 µM at Kv1.5 turned out to be 97%. Moreover, on HERG, the inhibition at 10 µM turned out to be 54%. Further, the IC50 in the series with L-type calcium channels turned out to be 11 µM.

In the case of `COc1ccc(CCN2C(=O)C3(CCN(C(=O)NC4CCCC4)CC3)N(C)C2c2ccc(C3CC3)cc2)cc1` (centres unmarked) [Compound 20, 2-(4-Cyclopropylphenyl)-3-[2-(4-methoxyphenyl)ethyl]-1-methyl-4-oxo-1,3,8-triaza-spiro[4.5]decane-8-carboxylic acid cyclopentylamide], at Kv1.5, 0.186 µM corresponded to half-maximal inhibition (IC50) and the inhibition at 1 µM came out at 93%. Moreover, at HERG, 4 µM corresponded to half-maximal inhibition (IC50) and the inhibition at 10 µM turned out to be 86%. Further, the half-inhibitory concentration (IC50) in the series with L-type calcium channels was found to be 8 µM.

Turning to `COc1ccc(CCN2C(=O)C3(CCN(C(N)=NC#N)CC3)N(C)C2c2ccc(C3CC3)cc2)cc1` (centres unmarked) [Compound 31, 8-(Cyano-1-carboxamidine)-2-(4-cyclopropylphenyl)-3-[2-(4-methoxyphenyl)-ethyl]-1-methyl-1,3,8-triaza-spiro[4.5]decan-4-one], the inhibition at 1 µM against Kv1.5 is 75%. Also, at HERG, the inhibition at 10 µM came to 25%. Further, in the series on L-type calcium channels, the IC50 amounted to 26 µM.

Consider `COc1ccc(CCN2C(=O)C3(CCN(C(C)=O)CC3)N(C)C2c2ccc(C3CC3)cc2)cc1` (centres unmarked) [Compound 5, 8-Acetyl-2-(4-cyclopropylphenyl)-3-[2-(4-methoxyphenyl)ethyl]-1-methyl-1,3,8-triaza-spiro[4.5]decan-4-one], for which, at Kv1.5, half-maximal inhibition (IC50) was put at 0.514 µM and the inhibition at 1 µM amounted to 84%. Also, at HERG, the IC50 turned out to be 31 µM and the inhibition at 10 µM stood at 8%. Further, the IC50 in the series on L-type calcium channels was 36 µM.

For the compound `COc1ccc(CCN2C(=O)C3(CCN(S(C)(=O)=O)CC3)N(C(=O)C(F)(F)F)C2c2ccc(C3CC3)cc2)cc1` (centres unmarked) [Compound 92, 2-(4-cyclopropylphenyl)-3-[2-(4-methoxyphenyl)ethyl]-8-(methylsulfonyl)-1-(trifluoroacetyl)-1,3,8-triazaspiro[4.5]decan-4-one], the inhibition at 1 µM at Kv1.5 turned out to be 81%. Besides, at HERG, the inhibition at 10 µM worked out at 73%. For the same compound, the concentration for half-maximal inhibition (IC50) in the series with L-type calcium channels turned out to be 14 µM.

`COc1ccc(CCN2C(=O)C3(CCN(C(=O)NN)CC3)N(C)C2c2ccc(C3CC3)cc2)cc1` (centres unmarked) [Compound 80, 2-(4-cyclopropylphenyl)-3-[2-(4-methoxyphenyl)ethyl]-1-methyl-4-oxo-1,3,8-triazaspiro[4.5]decane-8-carbohydrazide] displayed an inhibition at 1 µM on Kv1.5 of 74%. Moreover, the inhibition at 10 µM at HERG was 24%. Moreover, the half-inhibitory concentration (IC50) with L-type calcium channels turned out to be 19 µM.

The compound `COc1ccc(CCN2C(=O)C3(CCN(C(=O)N4CCN(C)CC4)CC3)N(C)C2c2ccc(C3CC3)cc2)cc1` (centres unmarked) [Compound 22, 2-(4-Cyclopropylphenyl)-3-[2-(4-methoxyphenyl)ethyl]-1-methyl-8-[(4-methylpiperazin-1-yl)carbonyl]-1,3,8-triaza-spiro[4.5]decan-4-one] yielded an inhibition at 1 µM against Kv1.5 of 51%. Besides, the inhibition at 10 µM at HERG was determined as 58%. Also, the IC50 with L-type calcium channels stood at 18 µM.

Take `COc1ccc(CCN2C(=O)C3(CCN(C(=O)c4ccno4)CC3)N(C)C2c2ccc(C3CC3)cc2)cc1` (centres unmarked) [Compound 42, 2-(4-Cyclopropylphenyl)-8-(isoxazol-5-yl-carbonyl)-3-[2-(4-methoxyphenyl)ethyl]-1-methyl-1,3,8-triazaspiro[4.5]decan-4-one]: the inhibition at 1 µM against Kv1.5 amounted to 94%. For the same compound, the inhibition at 10 µM on HERG came to 81%. In addition, the half-maximal inhibitory concentration (IC50) in the series with L-type calcium channels amounted to 23 µM.

Compound `CN1C(c2ccc(C3CC3)cc2)N(CCc2ccc(OC(F)(F)F)cc2)C(=O)C12CCN(C(N)=O)CC2` (centres unmarked) [Compound 14, 2-(4-Cyclopropylphenyl)-3-[2-(4-trifluoromethoxyphenyl)ethyl]-1-methyl-4-oxo-1,3,8-triaza-spiro[4.5]decane-8-carboxylic acid amide] came in with an inhibition at 1 µM on Kv1.5 of 59%. Besides, the inhibition at 10 µM on HERG came to 75%. Further, the IC50 in the series on L-type calcium channels stood at 15 µM.

At Kv1.5, `COc1ccc(CCN2C(=O)C3(CCN(C(N)=O)CC3)N(C)C2c2ccc(C3CC3)cc2)cc1` (centres unmarked) [Compound 7, 2-(4-Cyclopropylphenyl)-3-[2-(4-methoxyphenyl)ethyl]-1-methyl-4-oxo-1,3,8-triaza-spiro[4.5]decane-8-carboxylic acid amide] showed a half-inhibitory concentration (IC50) of 0.579 µM and an inhibition at 1 µM of 87%. Also, at HERG, the IC50 worked out at 23.5 µM and the inhibition at 10 µM came to 12%. In addition, the IC50 with L-type calcium channels is 9 µM.

`CCN(CC)c1ccc(C2N(CCc3ccc(OC)cc3)C(=O)C3(CCN(C(N)=O)CC3)N2C)cc1` (centres unmarked) [Compound 10, 2-[4-(Diethylamino)phenyl]-3-[2-(4-methoxyphenyl)ethyl]-1-methyl-4-oxo-1,3,8-triaza-spiro[4.5]decane-8-carboxylic acid amide] had an inhibition at 1 µM against Kv1.5 of 87%. The inhibition at 10 µM on HERG was 5%. Further, the half-maximal inhibitory concentration (IC50) with L-type calcium channels worked out at 12 µM.

As for `CC(=O)N1CCC2(CC1)C(=O)N(CCCc1ccccc1)C(c1ccc(C3CC3)cc1)N2C` (centres unmarked) [Compound 44, 8-Acetyl-2-(4-cyclopropylphenyl)-3-(3-phenylpropyl)-1-methyl-1,3,8-triazaspiro-[4.5]decan-4-one], the inhibition at 1 µM against Kv1.5 is 73%. For the same compound, at HERG, the inhibition at 10 µM was found to be 61%. In addition, in the series with L-type calcium channels, the IC50 is 15 µM.
